Results as given in PMC5958115, “A novel small molecule chaperone of rod opsin and its potential therapy for retinal degeneration” (Nature Communications, 2018).
Entries after “also recorded” stand apart in the source; their conditions may differ. Like-named read-outs stand apart in the source and are kept apart here.

Target: mouse P23H-opsin mutant (Mus musculus, UniProt P15409, P23H)
Assay: β-Gal fragment complementation assay: rescue of P23H opsin transport from ER to plasma membrane, U2OS(PLC-EA/P23H-PK) cells
Format: cell-based
From the text: U2OS(PLC-EA/P23H-PK) cells. A U2OS stable cell line was generated by DiscoveRx, Inc. (Fremont, CA, USA) for the β-Gal fragment complementation assay used in the small-molecule HTS for rescue of P23H-opsin transport. U2OS cells that continually express P23H-PK and PLC-EA fusion proteins were generated. Briefly, this small subunit of β-Gal (PK fragment) was fused to the C-terminal of the mouse P23H-opsin mutant, while the large EA fragment, a subunit of β-Gal, was fused with PLC, a plasma membrane-anchored peptide. Both constructs were subcloned by DicoveRx, Inc. and transferred into U2OS cells by viral infections. Positive clones were selected under treatment with hygromycin and geneticin.
Briefly, U2OS(PLC-EA /P23H-PK) cells were suspended in assay medium at 3 × 10^5 cells mL^−1. The cell suspension was dispensed into 384-well plates (Greiner Bio-one, Monroe, NC, USA) at 20 µL per well, with a Multidrop dispenser (Thermo Scientific, Waltham, MA, USA). Plates with cells then were centrifuged at 200×g for 15 s before incubation at 37 °C with 5% CO2. Plates were removed 24 h later for treatment with tested compounds. A total of 248 plates containing 79,080 compounds from three small-molecule libraries were paired with an equal number of assay plates with cultured cells. Owing to a limited capacity, these plates were assayed in seven batches. An average of 56.3 nL of 10 mM compound in DMSO was dispensed into each well from column 3 to 22 of paired assay plates using a 50 nL 384-pintool system, such that the final concentration of each compound was 22.52 µM on average. […] Each assay plate was shaken for 5 s before further incubation at 37 °C with 5% CO2. After 24 h, assay plates were removed, and each well was incubated with 25 µL of 1× Gal-Screen assay buffer (1:24 substrate-buffer ratio). Assay plates were incubated in the dark for 60–90 min, and luminescence was read from each assay plate with an Envision microplate reader (PerkinElmer) during a 0.1 s per well integration time. The mean and s.d. of readouts in column 2 of each plate were calculated as Mean0% and SD0%, whereas the average and s.d. of readouts in column 23 were calculated as Mean100% and SD100%. Eq. 1: Activity scores (%) = (RLUcp − Mean0%)/(Mean100% − Mean0%) × 100%, where RLUcp is the relative luminescence unit derived for cells treated with a compound. Eq. 2: Z′-factor = 1–3 × (SD0% + SD100%)/(Mean100% − Mean0%)[32]; Eq. 3: signal-to-background (S/B) ratio = Mean100%/Mean0%. Activities of all tested compounds were registered with their compound ID by GeneData Screener (Genedata, Basel, Switzerland) and Pipeline Pilot software (Accelrys, San Diego, CA, USA). Hits, cherry-picked from a separate stock dose-dependent activity test, were selected with an activity score cutoff at 20%. Activity of each hit was tested again with the β-Gal fragment complementation assay in a 10-dose series with each dose tested in triplicate. The 10 doses tested were 80, 40, 20, 10, 5, 2.5, 1.25, 0.625, 0.313, and 0.156 µM. Dose-dependent curves of each hit compound were fitted with GeneData and Origin software.
Detailed synthetic steps are described in Supplementary Note and Supplementary Fig. 9. […] YC-002-YC-021 were purchased from commercial vendors including Enamine LLC (Monmouth Jct., NJ, USA), Matrix Scientific (Columbia, SC, USA) and Tokyo Chemical Industry Co., Ltd. (Portland, OR, USA). […] Activities of YC compounds were tested with the β-Gal fragment complementation assay, as described in a prior section. All YC compounds were tested at 10 doses, each in triplicate: 80, 40, 20, 10, 5, 2.5, 1.25, 0.625, 0.313, and 0.156 µM.

[1] = modifications linked to C3 of the furan-2(5H)-one ring; 10 doses 0.156-80 µM; read-out: Potency EC50

Row | SMILES | activity in rescuing P23H-opsin transport (in words) | EC50 [1] [µM] | Emax (U2OS; read-out: Efficacy (%)) [%] | other results
1 | Cc1sc(C)c(C2C(=O)OC(=O)C2c2c(C)sc(C)c2C)c1C (stereo not shown) [YC-018] | – | – | – | EC50 (more than one site modified; read-out: Potency): 138 µM
2 | O=C1OCC(c2ccc(Cl)s2)=C1c1ccco1 [YC-028] | failed to retain activity | – | – | –
3 | O=C1OCC(c2ccc(Cl)s2)=C1c1ccccn1 [YC-043] | activity was preserved or improved; also recorded: improved potency, efficacy, or solubility | 19 | – | Efficacy (%) (modifications at C3; normalized to 5 µM 9-cis-retinal): 214%
4 | O=C1OCC(c2ccc(Cl)s2)=C1c1ccccc1 [YC-047] | activity was preserved or improved | 9.87 | 188 | –
5 | O=C1OCC(c2ccco2)=C1c1cccs1 [YC-049] | some activity that remained | – | – | EC50: 91.9 µM; Emax (U2OS, read-out: Efficacy (%)): 112%
6 | O=C1OCC(c2ccc(Cl)s2)=C1c1cccc(F)c1 [YC-050] | lower efficacies | 7.36 | 131 | –
7 | O=C1OCC(c2ccc(Cl)s2)=C1c1ccsc1 [YC-051] | activity was preserved or improved | 10.9 | 169 | –
8 | COc1ccc(C2=C(c3ccc(Cl)s3)COC2=O)cc1 [YC-052] | – | 7.13 | 10 | –
9 | Cc1c(F)cccc1C1=C(c2ccc(Cl)s2)COC1=O [YC-054] | improved potency, efficacy, or solubility | 3.53 | 227 | –
10 | O=C1OCC(c2ccc(Cl)s2)=C1c1ccc(Cl)cc1Cl [YC-055] | – | 5.33 | 11 | –
11 | O=C1OCC(c2ccc(Cl)s2)=C1c1ccccc1F [YC-068] | relatively higher efficacies; also recorded: improved potency, efficacy, or solubility | 5.66 | 261 | –

Further lines, with some results ahead:

Row | activity in rescuing P23H-opsin transport (in words) | EC50 [1] [µM] | Emax (U2OS; read-out: Efficacy (%)) [%] | SMILES | other results
12 | little efficacy | 24.1 | 32.9 | O=C1OCC(c2ccc(Cl)s2)=C1c1ccc(F)cc1 [YC-053] | –
13 | – | 9.39 | 104 | COc1cccc(C2=C(c3ccc(Cl)s3)COC2=O)c1Cl [YC-056] | –
14 | – | – | 7.1 | O=C1NCC(c2ccc(Cl)s2)=C1c1cccs1 [YC-060] | EC50 (modifications of the furan-2(5H)-one ring; read-out: Potency): 24.6 µM
